For one assay, the target named is T1, NUAK1 (Homo sapiens, UniProt O60285).
T1 sequence (O60285 1-661): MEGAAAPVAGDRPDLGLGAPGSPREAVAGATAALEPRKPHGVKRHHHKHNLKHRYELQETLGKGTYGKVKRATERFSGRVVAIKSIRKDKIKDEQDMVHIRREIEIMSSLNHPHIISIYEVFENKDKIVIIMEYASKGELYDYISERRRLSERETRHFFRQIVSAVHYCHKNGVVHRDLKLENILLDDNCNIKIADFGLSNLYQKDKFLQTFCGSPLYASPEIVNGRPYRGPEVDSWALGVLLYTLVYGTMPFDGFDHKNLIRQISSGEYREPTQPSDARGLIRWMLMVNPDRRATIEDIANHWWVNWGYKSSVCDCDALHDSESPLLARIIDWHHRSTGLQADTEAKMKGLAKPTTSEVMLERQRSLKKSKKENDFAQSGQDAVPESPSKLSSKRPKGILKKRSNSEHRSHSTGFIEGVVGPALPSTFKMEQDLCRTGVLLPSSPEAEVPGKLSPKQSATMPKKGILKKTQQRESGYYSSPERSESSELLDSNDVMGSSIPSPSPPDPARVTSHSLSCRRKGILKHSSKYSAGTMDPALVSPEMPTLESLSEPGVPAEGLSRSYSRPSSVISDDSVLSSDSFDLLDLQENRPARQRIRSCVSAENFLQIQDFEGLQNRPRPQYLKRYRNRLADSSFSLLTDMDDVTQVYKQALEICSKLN
The assay can be described thus: Enzyme activity inhibition test, kinase activity assay based on P81 filter paper binding hot-spot technique. The assay is classed as biochemical. The settings on record: final concentration of NUAK1 10 nM; 20 µM CHKtide peptide substrate; 33P-labeled ATP; 2 hours at room temperature; read-out: IC50 (nM) of Test Compounds against NUAK1. As to the method:
(§1) Test Example: Enzyme Activity Inhibition Test of NUAK1/NUAK2 Kinase Inhibitors
(§2) The inhibitory activity of the pyrimidinamine small molecules involved in the present application against NUAK1 and NUAK2 kinases was determined using a kinase activity assay based on the P81 filter paper binding hot-spot technique (Nat Biotechnol. 2011, 29:1039). A brief description is as follows:
(§3) The assay buffer system contained 20 mM Hepes (pH 7.5), 10 mM MgCl2, 1 mM EGTA, 0.01% Brij35 (L23 polyoxyethylene lauryl ether), 0.02 mg/mL BSA (bovine serum albumin), 0.1 mM Na3VO4, 2 mM DTT, and 1% DMSO.
(§4) • 1. A 20 µM substrate solution was prepared with freshly prepared test buffer and CHKtide peptide fragments (Sanchez Y. Science. 1997, 277: 1497-1501) were used as a substrate. • 2. Kinases were added and mixed gently (a final concentration of NUAK1 was 10 nM; and a final concentration of NUAK2 was 50 nM). • 3. Test compounds dissolved in 100% DMSO were each added to the above kinase reaction mixture solution via Acoustic Droplet Ejection (Echo550; nanoliter) and the mixture was incubated for 5 minutes at room temperature. • 4. ^33P-labeled ATP (a ratio of unlabeled ATP to labeled ATP was 25:1 or 2.5:1) was added. • 5. The mixture was incubated for 2 hours at room temperature. • 6. Kinase activity was tested using the P81 filter paper combined with hotspot technology.
(§5) The IC50 values of the test compounds against NUAK1/NUAK2 were calculated according to the above test. For specific results, see Table 1.
(§6) The IC50 values were calculated by using a formula derived from sigmoidal dose-response curve (variable slope): Y = Bottom + (Top−Bottom)/(1+10^(∧)((LogEC50−X)*Slope, [formula] where X is the logarithm of compound concentration, Y is the response (inhibition rate of kinase activity), and Y rises from bottom to top along the sigmoidal curve as the concentration increases. Table 1: IC50 (nM) of Test Compounds of the Present Application against NUAK1/NUAK2

The target of a further assay is T2, NUAK2 (Homo sapiens, UniProt Q9H093).
T2 sequence (Q9H093 1-628): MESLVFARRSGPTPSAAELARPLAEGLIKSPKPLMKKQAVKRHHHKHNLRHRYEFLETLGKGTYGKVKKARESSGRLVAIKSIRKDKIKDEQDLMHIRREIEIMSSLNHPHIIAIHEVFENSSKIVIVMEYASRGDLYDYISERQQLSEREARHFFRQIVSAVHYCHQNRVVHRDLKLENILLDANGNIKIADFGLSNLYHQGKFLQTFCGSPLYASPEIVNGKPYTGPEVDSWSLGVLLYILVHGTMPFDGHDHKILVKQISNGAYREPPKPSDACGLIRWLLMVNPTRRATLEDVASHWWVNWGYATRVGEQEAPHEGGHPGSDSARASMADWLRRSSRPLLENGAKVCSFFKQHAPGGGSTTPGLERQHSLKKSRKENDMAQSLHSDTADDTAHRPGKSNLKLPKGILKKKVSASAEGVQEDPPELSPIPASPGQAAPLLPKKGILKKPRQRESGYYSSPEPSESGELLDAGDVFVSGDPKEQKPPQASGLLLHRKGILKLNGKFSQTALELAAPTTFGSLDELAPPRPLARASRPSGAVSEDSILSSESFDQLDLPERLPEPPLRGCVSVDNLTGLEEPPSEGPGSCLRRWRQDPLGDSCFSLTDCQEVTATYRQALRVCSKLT
The description is as above. The assay is classed as biochemical. Particulars: final concentration of NUAK2 50 nM; 20 µM CHKtide peptide substrate; 33P-labeled ATP; 2 hours at room temperature; read-out: IC50 (nM) of Test Compounds against NUAK2. As to the method:
as §1, §2, §3, §4, §5, §6

The IC50 is the concentration at which inhibition is half-maximal. As for `CC1(NC(=O)[C@@H]2CC2(F)F)CCN(Cc2nc(Nc3cnn(C4CCNCC4)c3)ncc2Cl)CC1` [TDM-181186, (S)-N-(1-((5-chloro-2-((1-(piperidin-4-yl)-1H-pyrazol-4-yl)amino)pyrimidin-4-yl)methyl)-4-methylpiperidin-4-yl)-2,2-difluorocyclopropane-1-carboxamide], the half-inhibitory concentration (IC50) at NUAK1 was found to be 959 nM. For `CN1CCN(c2ccc(Nc3nccc(N4CCC(C)(NS(=O)(=O)C5CC5)CC4)n3)cc2)CC1` [TDM-181165, N-(4-methyl-1-(2-((4-(4-methylpiperazin-1-yl)phenyl)amino)pyrimidin-4-yl)piperidin-4-yl)cyclopropanesulfonamide], the results for the half-inhibitory concentration (IC50) on NUAK1 and on NUAK2 were 39 nM and 72 nM, respectively.

Regarding `CC1(NS(=O)(=O)C2CC2)CCN(c2ccnc(Nc3cnn(C4CCNCC4)c3)n2)CC1` [TDM-181137], the values for the half-maximal inhibitory concentration (IC50) at NUAK1 and on NUAK2 were 71 nM and 29 nM, respectively. For `CN1CCN(c2ccc(Nc3ncc(Cl)c(N4CCC(C)(NC(=O)[C@@H]5CC5(F)F)CC4)n3)cc2)CC1` [TDM-181174, (S)-N-(1-(5-chloro-2-((4-(4-methylpiperazin-1-yl)phenyl)amino)pyrimidin-4-yl)-4-methylpiperidin-4-yl)-2,2-difluorocyclopropanecarboxamide] the same measures were 0.46 nM and 1.44 nM.

Regarding `CN1CCN(c2ccc(Nc3nccc(N4CCC(C)(NC(=O)[C@@H]5CC5(F)F)CC4)n3)cc2)CC1` [TDM-181164, (S)-2,2-Difluoro-N-(4-methyl-1-(2-((4-(4-methylpiperazin-1-yl)phenyl)amino)pyrimidin-4-yl)piperidin-4-yl)cyclopropane-1-carboxamide], the IC50 on NUAK1 was 6 nM; on NUAK2, 15 nM. On to `CC1(NC(=O)[C@@H]2CC2(F)F)CCN(c2nc(Nc3cnn(C4CCNCC4)c3)ncc2Cl)CC1`, for which the IC50 was determined as 1.24 nM on NUAK1 and 2.76 nM at NUAK2. The matching figures for `COc1cc(N2CCN(C)CC2)ccc1Nc1ncc(Cl)c(N2CCC(C)(NS(=O)(=O)C3CC3)CC2)n1` [TDM-181175, N-(1-(5-chloro-2-((2-methoxy-4-(4-methylpiperazin-1-yl)phenyl)amino)pyrimidin-4-yl)4-methylpiperidin-4-yl)cyclopropanesulfonamide]: 20 nM and 13 nM. For the compound `CN1CCN(c2ccc(Nc3ncc(Cl)c(N4CCC(C)(NS(=O)(=O)C5CC5)CC4)n3)cc2)CC1` [TDM-181173, N-(1-(5-chloro-2-((4-(4-methylpiperazin-1-yl)phenyl)amino)pyrimidin-4-yl)-4-methylpiperidin-4-yl)cyclopropanesulfonamide], the IC50 is 1 nM at NUAK1 and 3 nM at NUAK2. Regarding `CC1(NC(=O)[C@@H]2CC2(F)F)CCN(c2ccnc(Nc3cnn(C4CCNCC4)c3)n2)CC1` [TDM-181163], the half-maximal inhibitory concentration (IC50) on NUAK1 was 30 nM; on NUAK2, 15 nM. As for `CN1CCN(c2ccc(Nc3ncc(Cl)c(CN4CCC(C)(NS(=O)(=O)C5CC5)CC4)n3)cc2)CC1` [TDM-181183, N-(1-((5-chloro-2-((4-(4-methylpiperazin-1-yl)phenyl)amino)pyrimidin-4-yl)methyl)-4-methylpiperidin-4-yl)cyclopropanesulfonamide], at NUAK1, the IC50 came to 69 nM.

On to `CN1CCN(c2ccc(Nc3ncc(Cl)c(CN4CCC(C)(NC(=O)[C@@H]5CC5(F)F)CC4)n3)cc2)CC1` [TDM-181182, (S)-N-(1-((5-chloro-2-((4-(4-methylpiperazin-1-yl)phenyl)amino)pyrimidin-4-yl)methyl)-4-methylpiperidin-4-yl)-2,2-difluorocyclopropane-1-carboxamide], for which, at NUAK1, the half-inhibitory concentration (IC50) came to 679 nM.

For the origin of these results see patent EP4745132A1 (Technoderma Medicines Inc., priority 2023, dated 2025).
